Measured values: patent US20250346600A1, “TRICYCLIC DERIVATIVES AND RELATED USES” (MOMA Therapeutics, Inc., priority 2023, published 2025)
Where two headings read alike, the source gives them in different places.

How the values were obtained:
[1] = target: T1, Full length WRN protein (aa 2-1432) (Homo sapiens (Human), UniProt Q14191); assay: WRN ATPase ADP-Glo biochemical assay, Assay Format B (100 μM ATP); settings: 0.25 nM WRN, 100 nM C6.18 ssDNA, 60 min preincubation, read-out: ATPase ADPGlo AC50 (uM)- Assay Format B
T1 sequence (Q14191 2-1432): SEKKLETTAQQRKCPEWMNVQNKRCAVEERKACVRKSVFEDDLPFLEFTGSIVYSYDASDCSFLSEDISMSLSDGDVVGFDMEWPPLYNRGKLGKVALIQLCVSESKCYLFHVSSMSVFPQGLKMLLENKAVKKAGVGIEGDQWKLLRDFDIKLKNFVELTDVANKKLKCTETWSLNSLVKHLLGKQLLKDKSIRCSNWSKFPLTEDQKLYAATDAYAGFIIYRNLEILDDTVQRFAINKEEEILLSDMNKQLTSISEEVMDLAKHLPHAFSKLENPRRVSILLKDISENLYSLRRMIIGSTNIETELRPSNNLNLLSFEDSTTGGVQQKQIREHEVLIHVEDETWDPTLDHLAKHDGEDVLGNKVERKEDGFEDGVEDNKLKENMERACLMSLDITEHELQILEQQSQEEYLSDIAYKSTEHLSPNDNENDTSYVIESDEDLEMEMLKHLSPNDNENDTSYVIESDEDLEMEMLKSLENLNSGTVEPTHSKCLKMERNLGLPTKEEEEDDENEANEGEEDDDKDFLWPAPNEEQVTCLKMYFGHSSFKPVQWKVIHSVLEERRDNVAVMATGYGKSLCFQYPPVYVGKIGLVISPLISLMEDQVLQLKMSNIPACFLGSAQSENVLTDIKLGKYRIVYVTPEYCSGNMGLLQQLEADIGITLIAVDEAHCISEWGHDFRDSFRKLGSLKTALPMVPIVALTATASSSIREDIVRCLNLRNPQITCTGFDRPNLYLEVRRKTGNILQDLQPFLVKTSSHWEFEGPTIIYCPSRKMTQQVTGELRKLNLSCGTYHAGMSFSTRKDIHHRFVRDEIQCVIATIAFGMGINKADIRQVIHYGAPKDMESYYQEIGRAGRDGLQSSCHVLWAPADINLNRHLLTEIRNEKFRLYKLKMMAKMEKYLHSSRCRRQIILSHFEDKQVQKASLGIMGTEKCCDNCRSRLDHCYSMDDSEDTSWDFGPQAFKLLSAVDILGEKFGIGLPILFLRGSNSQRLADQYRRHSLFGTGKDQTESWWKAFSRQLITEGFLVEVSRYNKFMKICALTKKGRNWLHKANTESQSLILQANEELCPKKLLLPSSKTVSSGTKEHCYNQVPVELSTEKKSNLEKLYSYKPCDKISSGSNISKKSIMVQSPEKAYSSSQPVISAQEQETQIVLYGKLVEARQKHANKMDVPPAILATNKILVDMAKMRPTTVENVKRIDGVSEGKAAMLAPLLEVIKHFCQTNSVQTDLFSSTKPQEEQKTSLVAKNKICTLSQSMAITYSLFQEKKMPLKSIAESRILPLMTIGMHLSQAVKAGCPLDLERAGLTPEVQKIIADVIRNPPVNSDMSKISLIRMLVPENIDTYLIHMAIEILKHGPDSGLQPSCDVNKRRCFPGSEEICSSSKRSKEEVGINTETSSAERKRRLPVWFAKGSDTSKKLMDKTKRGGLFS

HT29 cells = assay: HT29 (MSS) 7 day viability, CellTiter Glo; assay type: cell-based; settings: 7 days, read-out: HT29 (MSS) Viability 7 Day CTGAbs AC50
In short: (§1)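 Seven-day viability is assessed with CellTiter Glo after compounds, diluted in ten 3-fold steps in DMSO, are exposed to HCT116 (50 cells/well) or HT29 (500 cells/well). Reported IC50 is the geometric mean of at least two independent runs.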

HCT116 cells = assay: HCT116 (MSI) 7 day viability, CellTiter Glo; assay type: cell-based; settings: 7 days, read-out: HCT116 (MSI) Viability 7 Day Abs AC50
In short: as §1

[2] = target: T1, Full length WRN protein (aa 2-1432); assay: WRN ATPase ADP-Glo biochemical assay, Assay Format A (10 μM ATP); settings: 0.25 nM WRN, 100 nM C6.18 ssDNA, 30 min preincubation, read-out: ATPase ADPGlo AC50 (uM)- Assay Format A
In short: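 Sf9-expressed FLAG-AVI-TEV-tagged WRN (0.5 nM) preincubated 30 min with compound (11-point 3-fold dilution). Reaction started with 200 nM C6.18 39-mer ssDNA and 20 μM ATP (addition concentrations), run 30 min at room temperature. ADP measured by ADP-Glo luminescence; IC50 from four-parameter fit, geometric mean of ≥2 runs.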

SMILES: C=CC(=O)N1CC(C)c2nn(-c3ccc(C4CC4)cc3O)c3c2C(C1)N(C(=O)c1cnc(C(F)(F)F)cc1N)CC3 (stereo not drawn) [Compound 189, 1-(5-(4-amino-6-(trifluoromethyl)nicotinoyl)-2-(4-cyclopropyl-2-hydroxyphenyl)-9-methyl-2,3,4,5,5a,6,8,9-octahydro-7H-1,2,5,7-tetraazabenzo[cd]azulen-7-yl)prop-2-en-1-one]
- AC50 [1]: 0.005 to 0.015 µM
- AC50 (HT29 cells; Homo sapiens, HT-29, 168 h): > 3000 nM
- AC50 (HCT116 cells; Homo sapiens, HCT-116, 168 h): 1 to 100 nM
- AC50 [2]: < 0.0015 µM

SMILES: C=CC(=O)N1CCc2nn(-c3ccc(C4CC4)cc3O)c3c2C(C1)N(C(=O)c1cnc(OC(F)F)cc1N)CC3 (stereo not drawn) [Compound 192, 1-(5-(4-amino-6-(difluoromethoxy)nicotinoyl)-2-(4-cyclopropyl-2-hydroxyphenyl)-2,3,4,5,5a,6,8,9-octahydro-7H-1,2,5,7-tetraazabenzo[cd]azulen-7-yl)prop-2-en-1-one]
- AC50 [1]: 0.005 to 0.015 µM
- AC50 (HT29 cells; Homo sapiens, HT-29, 168 h): > 3000 nM
- AC50 (HCT116 cells; Homo sapiens, HCT-116, 168 h): 1 to 100 nM
- AC50 [2]: < 0.0015 µM

SMILES: C=CC(=O)N1CCc2nn(-c3ccc(C4CC4)cc3O)c3c2C(C1)N(C(=O)c1ccc(Br)nc1N)CC3 (stereo not drawn) [Compound 193, 1-(5-(2-amino-6-bromonicotinoyl)-2-(4-cyclopropyl-2-hydroxyphenyl)-2,3,4,5,5a,6,8,9-octahydro-7H-1,2,5,7-tetraazabenzo[cd]azulen-7-yl)prop-2-en-1-one]
- AC50 [1]: 0.005 to 0.015 µM
- AC50 (HT29 cells; Homo sapiens, HT-29, 168 h): > 3000 nM
- AC50 (HCT116 cells; Homo sapiens, HCT-116, 168 h): 1 to 100 nM
- AC50 [2]: < 0.0015 µM

SMILES: C=CC(=O)N1CCc2nn(-c3ccc(C4CC4)cc3O)c3c2C(C1)N(C(=O)c1cnc(C(F)(F)F)c(F)c1N)CC3 (stereo not drawn) [Compound 194, 1-(5-(4-amino-5-fluoro-6-(trifluoromethyl)nicotinoyl)-2-(4-cyclopropyl-2-hydroxyphenyl)-2,3,4,5,5a,6,8,9-octahydro-7H-1,2,5,7-tetraazabenzo[cd]azulen-7-yl)prop-2-en-1-one]
- AC50 [1]: 0.005 to 0.015 µM
- AC50 (HT29 cells; Homo sapiens, HT-29, 168 h): > 3000 nM
- AC50 (HCT116 cells; Homo sapiens, HCT-116, 168 h): 1 to 100 nM
- AC50 [2]: 0.0015 to 0.005 µM

SMILES: C=CC(=O)N1CC(C)c2nn(-c3ccc(C4CC4)cc3O)c3c2C(C1)N(C(=O)c1cnc(C(F)(F)F)cc1N)CC3 (stereo not drawn) [Compound 195, 1-(5-(4-amino-6-(trifluoromethyl)nicotinoyl)-2-(4-cyclopropyl-2-hydroxyphenyl)-9-methyl-2,3,4,5,5a,6,8,9-octahydro-7H-1,2,5,7-tetraazabenzo[cd]azulen-7-yl)prop-2-en-1-one]
- AC50 [1]: 0.005 to 0.015 µM
- AC50 (HT29 cells): > 3000 nM
- AC50 (HCT116 cells): 1 to 100 nM
- AC50 [2]: < 0.0015 µM

SMILES: C=CC(=O)N1CCc2nn(-c3ccc(C4CC4)cc3O)c3c2C(C1)N(C(=O)c1cnc(Cl)cc1N)CC3 (stereo not drawn) [Compound 196, 1-(5-(4-amino-6-chloronicotinoyl)-2-(4-cyclopropyl-2-hydroxyphenyl)-2,3,4,5,5a,6,8,9-octahydro-7H-1,2,5,7-tetraazabenzo[cd]azulen-7-yl)prop-2-en-1-one]
- AC50 [1]: 0.005 to 0.015 µM
- AC50 (HT29 cells; Homo sapiens, HT-29, 168 h): > 3000 nM
- AC50 (HCT116 cells; Homo sapiens, HCT-116, 168 h): 1 to 100 nM
- AC50 [2]: < 0.0015 µM

SMILES: C=CC(=O)N1CC(OC2CC(C#N)C2)c2nn(-c3ccc(C4CCC4)cc3)c3c2C(C1)N(C(=O)c1cnc(C(F)(F)F)cc1N)CC3 (stereo not drawn) [Compound 198, 3-((7-acryloyl-5-(4-amino-6-(trifluoromethyl)nicotinoyl)-2-(4-cyclobutylphenyl)-3,4,5,5a,6,7,8,9-octahydro-2H-1,2,5,7-tetraazabenzo[cd]azulen-9-yl)oxy)cyclobutane-1-carbonitrile]
- AC50 [1]: 0.005 to 0.015 µM
- AC50 (HT29 cells; Homo sapiens, HT-29, 168 h): > 3000 nM
- AC50 (HCT116 cells; Homo sapiens, HCT-116, 168 h): 1 to 100 nM
- AC50 [2]: < 0.0015 µM

SMILES: C=CC(=O)N1CCc2nn(-c3ccc(C4CC4)cc3O)c3c2C(C1)N(C(=O)c1ccc(Cl)nc1N)CC3 (stereo not drawn) [Compound 199, 1-(5-(2-amino-6-chloronicotinoyl)-2-(4-cyclopropyl-2-hydroxyphenyl)-2,3,4,5,5a,6,8,9-octahydro-7H-1,2,5,7-tetraazabenzo[cd]azulen-7-yl)prop-2-en-1-one]
- AC50 [1]: 0.005 to 0.015 µM
- AC50 (HT29 cells; Homo sapiens, HT-29, 168 h): > 3000 nM
- AC50 (HCT116 cells; Homo sapiens, HCT-116, 168 h): 1 to 100 nM
- AC50 [2]: < 0.0015 µM

SMILES: C=CC(=O)N1CCc2nn(-c3ccc(C4CC4)cc3O)c3c2C(C1)N(C(=O)c1cc(F)c(C(F)(F)F)nc1N)CC3 (stereo not drawn) [Compound 200, 1-(5-(2-amino-5-fluoro-6-(trifluoromethyl)nicotinoyl)-2-(4-cyclopropyl-2-hydroxyphenyl)-2,3,4,5,5a,6,8,9-octahydro-7H-1,2,5,7-tetraazabenzo[cd]azulen-7-yl)prop-2-en-1-one]
- AC50 [1]: 0.015 to 0.055 µM
- AC50 (HT29 cells; Homo sapiens, HT-29, 168 h): > 3000 nM
- AC50 (HCT116 cells; Homo sapiens, HCT-116, 168 h): 1 to 100 nM
- AC50 [2]: < 0.0015 µM

SMILES: C=CC(=O)N1CCc2nn(Cc3ccccc3)c3c2C(C1)N(C(=O)c1cnc(C(F)(F)F)cc1N)CC3 (stereo not drawn) [Compound 201, 1-(5-(4-amino-6-(trifluoromethyl)nicotinoyl)-2-benzyl-2,3,4,5,5a,6,8,9-octahydro-7H-1,2,5,7-tetraazabenzo[cd]azulen-7-yl)prop-2-en-1-one]
- AC50 [1]: < 0.0015 µM
- AC50 (HT29 cells; Homo sapiens, HT-29, 168 h): > 3000 nM
- AC50 (HCT116 cells; Homo sapiens, HCT-116, 168 h): > 1000 nM
- AC50 [2]: > 0.055 µM

SMILES: C=CC(=O)N1CCc2nn(-c3ccc(C4CC4)cc3O)c3c2C(C1)N(C(=O)c1cnc(Br)c(F)c1N)CC3 (stereo not drawn) [Compound 202, 1-(5-(4-amino-6-bromo-5-fluoronicotinoyl)-2-(4-cyclopropyl-2-hydroxyphenyl)-2,3,4,5,5a,6,8,9-octahydro-7H-1,2,5,7-tetraazabenzo[cd]azulen-7-yl)prop-2-en-1-one]
- AC50 [1]: 0.0015 to 0.005 µM
- AC50 (HT29 cells; Homo sapiens, HT-29, 168 h): > 3000 nM
- AC50 (HCT116 cells; Homo sapiens, HCT-116, 168 h): 1 to 100 nM
- AC50 [2]: 0.0015 to 0.005 µM

SMILES: C=CC(=O)N1CCc2nn(-c3ccc(C4CC4)cc3O)c3c2C(C1)N(C(=O)c1cnc(C(C)(F)F)c(F)c1N)CC3 (stereo not drawn) [Compound 206, 1-(5-(4-amino-6-(1,1-difluoroethyl)-5-fluoronicotinoyl)-2-(4-cyclopropyl-2-hydroxyphenyl)-2,3,4,5,5a,6,8,9-octahydro-7H-1,2,5,7-tetraazabenzo[cd]azulen-7-yl)prop-2-en-1-one]
- AC50 [1]: 0.0015 to 0.005 µM
- AC50 (HT29 cells; Homo sapiens, HT-29, 168 h): > 3000 nM
- AC50 (HCT116 cells; Homo sapiens, HCT-116, 168 h): 1 to 100 nM
- AC50 [2]: 0.0015 to 0.005 µM

SMILES: COC/C=C/C(=O)N1CCc2nn(-c3ccc(C4CCC4)cc3O)c3c2C(C1)N(C(=O)c1cnc(C(F)(F)F)cc1N)CC3 (stereo not drawn) [Compound 239, 1-(5-(4-amino-6-(trifluoromethyl)nicotinoyl)-2-(4-cyclobutyl-2-hydroxyphenyl)-2,3,4,5,5a,6,8,9-octahydro-7H-1,2,5,7-tetraazabenzo[cd]azulen-7-yl)-4-methoxybut-2-en-1-one]
- AC50 [1]: > 0.055 µM
- AC50 (HT29 cells; Homo sapiens, HT-29, 168 h): > 3000 nM
- AC50 (HCT116 cells; Homo sapiens, HCT-116, 168 h): 100 to 250 nM
- AC50 [2]: 0.005 to 0.015 µM

SMILES: C=CC(=O)N1CCc2nn(-c3ccc(C4CCC4)cc3C)c3c2C(C1)N(C(=O)c1cnc(C(F)(F)F)cc1N)CC3 (stereo not drawn) [Compound 240, 1-(5-(4-amino-6-(trifluoromethyl)nicotinoyl)-2-(4-cyclobutyl-2-methylphenyl)-2,3,4,5,5a,6,8,9-octahydro-7H-1,2,5,7-tetraazabenzo[cd]azulen-7-yl)prop-2-en-1-one]
- AC50 [1]: 0.0015 to 0.005 µM
- AC50 (HT29 cells; Homo sapiens, HT-29, 168 h): > 3000 nM
- AC50 (HCT116 cells; Homo sapiens, HCT-116, 168 h): 1 to 100 nM
- AC50 [2]: < 0.0015 µM

SMILES: C=CC(=O)N1CCc2nn(-c3ccc(C4CCC4)cc3Cl)c3c2C(C1)N(C(=O)c1cnc(C(F)(F)F)cc1N)CC3 (stereo not drawn) [Compound 241, 1-(5-(4-amino-6-(trifluoromethyl)nicotinoyl)-2-(2-chloro-4-cyclobutylphenyl)-2,3,4,5,5a,6,8,9-octahydro-7H-1,2,5,7-tetraazabenzo[cd]azulen-7-yl)prop-2-en-1-one]
- AC50 [1]: 0.005 to 0.015 µM
- AC50 (HT29 cells; Homo sapiens, HT-29, 168 h): > 3000 nM
- AC50 (HCT116 cells; Homo sapiens, HCT-116, 168 h): 1 to 100 nM
- AC50 [2]: < 0.0015 µM

SMILES: C=CC(=O)N1CCc2nn(-c3ccc(C4CCC4)cc3O)c3c2C(C1)N(C(=O)c1ccc(C(F)(F)F)c2ncncc12)CC3 (stereo not drawn) [Compound 242, 1-(2-(4-cyclobutyl-2-hydroxyphenyl)-5-(8-(trifluoromethyl)quinazoline-5-carbonyl)-2,3,4,5,5a,6,8,9-octahydro-7H-1,2,5,7-tetraazabenzo[cd]azulen-7-yl)prop-2-en-1-one]
- AC50 [1]: 0.015 to 0.055 µM
- AC50 (HT29 cells; Homo sapiens, HT-29, 168 h): > 3000 nM
- AC50 (HCT116 cells; Homo sapiens, HCT-116, 168 h): 1 to 100 nM
- AC50 [2]: 0.0015 to 0.005 µM

SMILES: Nc1cc(C(F)(F)F)ncc1C(=O)N1CCc2c3c(nn2-c2ccc(C4CCC4)cc2)CCN(C(=O)/C=C\Cl)CC31 (stereo not drawn) [Compound 243, 1-(5-(4-amino-6-(trifluoromethyl)nicotinoyl)-2-(4-cyclobutylphenyl)-2,3,4,5,5a,6,8,9-octahydro-7H-1,2,5,7-tetraazabenzo[cd]azulen-7-yl)-3-chloroprop-2-en-1-one]
- AC50 [1]: 0.015 to 0.055 µM
- AC50 (HT29 cells; Homo sapiens, HT-29, 168 h): 1000 to 3000 nM
- AC50 (HCT116 cells; Homo sapiens, HCT-116, 168 h): 1 to 100 nM
- AC50 [2]: 0.0015 to 0.005 µM

SMILES: C=CC(=O)N1CCc2nn(-c3cc(F)c(C4CC4)c(F)c3O)c3c2C(C1)N(C(=O)c1cnc(C(F)(F)F)cc1N)CC3 (stereo not drawn) [Compound 244, 1-(5-(4-amino-6-(trifluoromethyl)nicotinoyl)-2-(4-cyclopropyl-3,5-difluoro-2-hydroxyphenyl)-2,3,4,5,5a,6,8,9-octahydro-7H-1,2,5,7-tetraazabenzo[cd]azulen-7-yl)prop-2-en-1-one]
- AC50 [1]: 0.015 to 0.055 µM
- AC50 (HT29 cells; Homo sapiens, HT-29, 168 h): > 3000 nM
- AC50 (HCT116 cells; Homo sapiens, HCT-116, 168 h): 1 to 100 nM
- AC50 [2]: 0.0015 to 0.005 µM
